Measured values published in ChEMBL document CHEMBL4507274 (2021).

What was measured:
[1] = target: GABA-A receptor; anion channel (Rattus norvegicus) (UniProt O09028+P15431+P18506+P18508+P19969+P20236+P23574+P23576+P28471+P28473+P30191+P62813+P63079+P63138+Q91ZM7+Q9ES14); settings: Compound concentration 10.0 uM
[2] = target: T1, Tyrosine-protein kinase ZAP-70 (Homo sapiens) (UniProt P43403); settings: Compound concentration 100.0 nM
T1 sequence (whole entry): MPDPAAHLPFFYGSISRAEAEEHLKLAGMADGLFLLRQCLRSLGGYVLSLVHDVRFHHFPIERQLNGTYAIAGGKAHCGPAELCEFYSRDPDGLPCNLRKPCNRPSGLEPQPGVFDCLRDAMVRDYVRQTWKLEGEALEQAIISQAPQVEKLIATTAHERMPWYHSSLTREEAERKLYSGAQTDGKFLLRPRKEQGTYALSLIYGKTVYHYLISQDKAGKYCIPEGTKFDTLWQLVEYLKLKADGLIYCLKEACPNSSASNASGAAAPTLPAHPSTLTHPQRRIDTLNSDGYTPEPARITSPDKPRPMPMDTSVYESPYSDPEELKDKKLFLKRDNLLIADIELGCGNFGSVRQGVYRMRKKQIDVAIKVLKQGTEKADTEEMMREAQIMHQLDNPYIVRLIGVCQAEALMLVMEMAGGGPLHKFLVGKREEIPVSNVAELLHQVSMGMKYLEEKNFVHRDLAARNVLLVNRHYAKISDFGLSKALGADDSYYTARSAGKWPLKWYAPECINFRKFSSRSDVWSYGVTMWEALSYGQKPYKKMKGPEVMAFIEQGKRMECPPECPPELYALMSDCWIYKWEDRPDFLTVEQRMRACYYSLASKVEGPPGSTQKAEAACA

[3] = target: BMP-2-inducible protein kinase (Homo sapiens) (UniProt Q9NSY1); settings: Compound concentration 100.0 nM
[4] = tested on: ALK tyrosine kinase receptor (Homo sapiens), Q9UM73 [C1156Y]; settings: Compound concentration 100.0 nM
[5] = target: cAMP-dependent protein kinase catalytic subunit alpha (Homo sapiens) (UniProt P17612); settings: Compound concentration 100.0 nM
[6] = target: Ribosomal protein S6 kinase alpha-1 (Homo sapiens) (UniProt Q15418); settings: Compound concentration 100.0 nM
Sequence of Ribosomal protein S6 kinase alpha-1 (Homo sapiens) (Q15418 whole entry): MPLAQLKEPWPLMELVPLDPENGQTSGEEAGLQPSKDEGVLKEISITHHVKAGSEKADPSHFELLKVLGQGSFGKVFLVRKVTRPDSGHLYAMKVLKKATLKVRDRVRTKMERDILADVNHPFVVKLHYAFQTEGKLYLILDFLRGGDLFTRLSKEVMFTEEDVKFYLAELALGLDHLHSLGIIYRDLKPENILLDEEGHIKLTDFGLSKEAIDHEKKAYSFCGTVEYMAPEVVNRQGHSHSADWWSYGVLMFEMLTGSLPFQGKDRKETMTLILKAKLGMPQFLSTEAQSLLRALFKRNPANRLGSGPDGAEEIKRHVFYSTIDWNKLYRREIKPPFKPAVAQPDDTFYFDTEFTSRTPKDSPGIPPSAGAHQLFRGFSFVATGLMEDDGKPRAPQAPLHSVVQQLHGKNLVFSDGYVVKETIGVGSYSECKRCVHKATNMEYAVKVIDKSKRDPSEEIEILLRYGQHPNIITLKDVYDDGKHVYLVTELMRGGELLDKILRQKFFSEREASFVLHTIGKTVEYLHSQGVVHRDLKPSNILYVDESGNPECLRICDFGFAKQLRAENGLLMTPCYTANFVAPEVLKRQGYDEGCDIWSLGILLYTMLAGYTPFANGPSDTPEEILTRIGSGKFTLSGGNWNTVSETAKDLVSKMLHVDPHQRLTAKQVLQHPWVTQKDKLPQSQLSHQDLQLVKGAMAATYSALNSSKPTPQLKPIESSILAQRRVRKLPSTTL

[7] = target: MAP kinase-interacting serine/threonine-protein kinase 1 (Homo sapiens) (UniProt Q9BUB5); settings: Compound concentration 100.0 nM
[8] = target: AP2-associated protein kinase 1 (Homo sapiens) (UniProt Q2M2I8); settings: Compound concentration 100.0 nM
[9] = target: Mitogen-activated protein kinase kinase kinase 14 (Homo sapiens) (UniProt Q99558); settings: Compound concentration 100.0 nM
[10] = target: D(2) dopamine receptor (Homo sapiens) (UniProt P14416); settings: Compound concentration 10.0 uM
Sequence of D(2) dopamine receptor (Homo sapiens) (P14416 whole entry): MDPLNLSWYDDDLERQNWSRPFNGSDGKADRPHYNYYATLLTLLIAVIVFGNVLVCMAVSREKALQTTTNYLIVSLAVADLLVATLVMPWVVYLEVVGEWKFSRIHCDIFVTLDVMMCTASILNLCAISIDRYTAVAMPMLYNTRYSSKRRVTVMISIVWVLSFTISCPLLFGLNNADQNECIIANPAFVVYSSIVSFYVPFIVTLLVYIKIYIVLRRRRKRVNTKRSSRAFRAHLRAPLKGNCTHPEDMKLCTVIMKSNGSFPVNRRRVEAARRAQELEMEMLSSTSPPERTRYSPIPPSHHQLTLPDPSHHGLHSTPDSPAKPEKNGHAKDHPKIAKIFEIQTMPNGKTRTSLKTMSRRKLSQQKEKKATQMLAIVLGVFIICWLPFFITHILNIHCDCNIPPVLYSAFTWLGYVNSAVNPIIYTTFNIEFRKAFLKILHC

[11] = target: Dual specificity protein kinase CLK4 (Homo sapiens) (UniProt Q9HAZ1); settings: Compound concentration 100.0 nM
Sequence of Dual specificity protein kinase CLK4 (Homo sapiens) (Q9HAZ1 whole entry, looked up): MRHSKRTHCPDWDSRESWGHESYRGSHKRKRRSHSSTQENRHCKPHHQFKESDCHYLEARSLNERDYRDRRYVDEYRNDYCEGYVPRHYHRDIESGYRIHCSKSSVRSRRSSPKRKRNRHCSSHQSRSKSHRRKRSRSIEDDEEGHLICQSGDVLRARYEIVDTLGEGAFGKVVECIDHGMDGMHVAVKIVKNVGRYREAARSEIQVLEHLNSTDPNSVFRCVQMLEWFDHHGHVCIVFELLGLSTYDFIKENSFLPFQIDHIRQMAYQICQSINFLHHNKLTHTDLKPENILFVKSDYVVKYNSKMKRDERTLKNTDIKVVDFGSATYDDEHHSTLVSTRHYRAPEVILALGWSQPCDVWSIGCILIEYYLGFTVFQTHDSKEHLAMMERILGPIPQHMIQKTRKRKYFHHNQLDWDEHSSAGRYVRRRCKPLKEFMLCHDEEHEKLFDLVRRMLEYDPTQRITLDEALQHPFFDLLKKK

[12] = target: Mitogen-activated protein kinase 14 (Homo sapiens) (UniProt Q16539); settings: Compound concentration 100.0 nM
[13] = target: Casein kinase I isoform alpha (Homo sapiens) (UniProt P48729); settings: Compound concentration 100.0 nM
[14] = target: Phosphatidylinositol 4,5-bisphosphate 3-kinase catalytic subunit alpha isoform (Homo sapiens) (UniProt P42336); settings: Compound concentration 100.0 nM
Sequence of Phosphatidylinositol 4,5-bisphosphate 3-kinase catalytic subunit alpha isoform (Homo sapiens) (P42336 whole entry, canonical isoform): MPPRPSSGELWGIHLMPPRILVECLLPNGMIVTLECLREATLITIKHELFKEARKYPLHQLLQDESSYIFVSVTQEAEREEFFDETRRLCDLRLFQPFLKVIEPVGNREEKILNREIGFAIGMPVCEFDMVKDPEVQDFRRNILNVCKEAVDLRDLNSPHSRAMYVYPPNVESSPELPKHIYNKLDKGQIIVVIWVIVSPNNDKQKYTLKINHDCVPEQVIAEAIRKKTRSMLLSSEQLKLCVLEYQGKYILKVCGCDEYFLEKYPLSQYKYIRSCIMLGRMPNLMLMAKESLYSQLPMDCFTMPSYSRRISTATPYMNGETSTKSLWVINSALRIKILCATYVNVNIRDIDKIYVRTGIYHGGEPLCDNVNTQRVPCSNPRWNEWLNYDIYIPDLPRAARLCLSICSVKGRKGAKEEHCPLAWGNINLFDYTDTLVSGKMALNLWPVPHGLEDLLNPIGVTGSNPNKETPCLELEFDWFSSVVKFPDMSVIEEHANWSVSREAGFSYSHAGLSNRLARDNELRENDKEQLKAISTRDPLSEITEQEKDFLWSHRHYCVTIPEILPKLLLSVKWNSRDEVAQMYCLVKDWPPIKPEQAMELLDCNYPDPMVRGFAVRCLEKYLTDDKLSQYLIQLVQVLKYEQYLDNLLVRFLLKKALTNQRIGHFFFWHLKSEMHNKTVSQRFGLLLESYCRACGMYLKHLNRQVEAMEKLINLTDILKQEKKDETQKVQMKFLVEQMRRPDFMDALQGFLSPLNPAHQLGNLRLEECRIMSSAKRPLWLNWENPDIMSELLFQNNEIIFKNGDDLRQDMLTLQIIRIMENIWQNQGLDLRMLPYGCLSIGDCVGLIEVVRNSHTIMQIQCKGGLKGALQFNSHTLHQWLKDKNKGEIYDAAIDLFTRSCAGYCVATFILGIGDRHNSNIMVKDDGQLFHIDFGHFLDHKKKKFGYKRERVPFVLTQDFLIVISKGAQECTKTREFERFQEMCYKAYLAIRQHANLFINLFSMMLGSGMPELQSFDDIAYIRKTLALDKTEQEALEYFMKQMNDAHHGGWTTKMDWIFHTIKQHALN

[15] = target: Tyrosine-protein kinase JAK2 (Homo sapiens) (UniProt O60674); settings: Compound concentration 100.0 nM
[16] = target: Cyclin-dependent kinase 18 (Homo sapiens) (UniProt Q07002); settings: Compound concentration 100.0 nM
[17] = target: Mitogen-activated protein kinase 9 (Homo sapiens) (UniProt P45984); settings: Compound concentration 100.0 nM
[18] = target: Dual specificity mitogen-activated protein kinase kinase 3 (Homo sapiens) (UniProt P46734); settings: Compound concentration 100.0 nM
Sequence of Dual specificity mitogen-activated protein kinase kinase 3 (Homo sapiens) (P46734 whole entry): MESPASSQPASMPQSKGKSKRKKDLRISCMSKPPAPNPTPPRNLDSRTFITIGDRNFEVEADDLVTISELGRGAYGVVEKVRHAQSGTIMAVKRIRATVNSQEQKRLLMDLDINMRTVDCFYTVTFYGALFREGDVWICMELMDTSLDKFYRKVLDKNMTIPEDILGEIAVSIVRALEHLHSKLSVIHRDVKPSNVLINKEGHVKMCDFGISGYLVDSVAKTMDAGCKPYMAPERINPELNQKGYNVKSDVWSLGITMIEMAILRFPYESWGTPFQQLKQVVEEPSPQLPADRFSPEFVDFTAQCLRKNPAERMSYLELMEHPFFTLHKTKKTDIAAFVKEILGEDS

[19] = target: Serine/threonine-protein kinase PRP4 homolog (Homo sapiens) (UniProt Q13523); settings: Compound concentration 100.0 nM
[20] = target: Cyclin-dependent kinase-like 3 (Homo sapiens) (UniProt Q8IVW4); settings: Compound concentration 100.0 nM
[21] = target: STE20-like serine/threonine-protein kinase (Homo sapiens) (UniProt Q9H2G2); settings: Compound concentration 100.0 nM
[22] = target: Serine/threonine-protein kinase 17B (Homo sapiens) (UniProt O94768); settings: Compound concentration 100.0 nM
Sequence of Serine/threonine-protein kinase 17B (Homo sapiens) (O94768 whole entry): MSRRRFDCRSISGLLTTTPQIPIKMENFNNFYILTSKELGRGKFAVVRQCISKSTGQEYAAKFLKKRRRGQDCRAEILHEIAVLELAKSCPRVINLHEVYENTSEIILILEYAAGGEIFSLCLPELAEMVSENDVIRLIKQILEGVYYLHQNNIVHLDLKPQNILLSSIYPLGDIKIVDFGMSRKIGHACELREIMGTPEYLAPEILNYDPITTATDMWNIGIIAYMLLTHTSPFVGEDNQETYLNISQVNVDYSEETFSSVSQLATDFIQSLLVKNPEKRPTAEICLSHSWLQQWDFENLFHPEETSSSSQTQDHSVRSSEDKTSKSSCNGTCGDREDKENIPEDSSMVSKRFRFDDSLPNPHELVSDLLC

[23] = target: Ribosomal protein S6 kinase beta-1 (Homo sapiens) (UniProt P23443); settings: Compound concentration 100.0 nM
[24] = target: Tyrosine-protein kinase Mer (Homo sapiens) (UniProt Q12866); settings: Compound concentration 100.0 nM
[25] = target: Mitogen-activated protein kinase kinase kinase 10 (Homo sapiens) (UniProt Q02779); settings: Compound concentration 100.0 nM
[26] = target: Myosin light chain kinase family member 4 (Homo sapiens) (UniProt Q86YV6); settings: Compound concentration 100.0 nM
[27] = target: Serine/threonine-protein kinase Nek6 (Homo sapiens) (UniProt Q9HC98); settings: Compound concentration 100.0 nM
[28] = target: Phosphorylase b kinase regulatory subunit alpha, liver isoform (Homo sapiens) (UniProt P46019); settings: Compound concentration 100.0 nM
[29] = target: Muscarinic acetylcholine receptor M2 (Homo sapiens) (UniProt P08172); settings: Compound concentration 10.0 uM
[30] = target: Proto-oncogene tyrosine-protein kinase ROS (Homo sapiens) (UniProt P08922); settings: Compound concentration 100.0 nM
[31] = target: Serine/threonine-protein kinase PAK 5 (Homo sapiens) (UniProt Q9P286); settings: Compound concentration 100.0 nM
[32] = target: Dual specificity protein kinase CLK2 (Homo sapiens) (UniProt P49760); settings: Compound concentration 100.0 nM
[33] = target: ALK tyrosine kinase receptor (Homo sapiens) (UniProt Q9UM73); settings: Compound concentration 100.0 nM
[34] = target: Rho-associated protein kinase 2 (Homo sapiens, UniProt O75116); settings: Compound concentration 100.0 nM
Sequence of Rho-associated protein kinase 2 (O75116 whole entry, looked up): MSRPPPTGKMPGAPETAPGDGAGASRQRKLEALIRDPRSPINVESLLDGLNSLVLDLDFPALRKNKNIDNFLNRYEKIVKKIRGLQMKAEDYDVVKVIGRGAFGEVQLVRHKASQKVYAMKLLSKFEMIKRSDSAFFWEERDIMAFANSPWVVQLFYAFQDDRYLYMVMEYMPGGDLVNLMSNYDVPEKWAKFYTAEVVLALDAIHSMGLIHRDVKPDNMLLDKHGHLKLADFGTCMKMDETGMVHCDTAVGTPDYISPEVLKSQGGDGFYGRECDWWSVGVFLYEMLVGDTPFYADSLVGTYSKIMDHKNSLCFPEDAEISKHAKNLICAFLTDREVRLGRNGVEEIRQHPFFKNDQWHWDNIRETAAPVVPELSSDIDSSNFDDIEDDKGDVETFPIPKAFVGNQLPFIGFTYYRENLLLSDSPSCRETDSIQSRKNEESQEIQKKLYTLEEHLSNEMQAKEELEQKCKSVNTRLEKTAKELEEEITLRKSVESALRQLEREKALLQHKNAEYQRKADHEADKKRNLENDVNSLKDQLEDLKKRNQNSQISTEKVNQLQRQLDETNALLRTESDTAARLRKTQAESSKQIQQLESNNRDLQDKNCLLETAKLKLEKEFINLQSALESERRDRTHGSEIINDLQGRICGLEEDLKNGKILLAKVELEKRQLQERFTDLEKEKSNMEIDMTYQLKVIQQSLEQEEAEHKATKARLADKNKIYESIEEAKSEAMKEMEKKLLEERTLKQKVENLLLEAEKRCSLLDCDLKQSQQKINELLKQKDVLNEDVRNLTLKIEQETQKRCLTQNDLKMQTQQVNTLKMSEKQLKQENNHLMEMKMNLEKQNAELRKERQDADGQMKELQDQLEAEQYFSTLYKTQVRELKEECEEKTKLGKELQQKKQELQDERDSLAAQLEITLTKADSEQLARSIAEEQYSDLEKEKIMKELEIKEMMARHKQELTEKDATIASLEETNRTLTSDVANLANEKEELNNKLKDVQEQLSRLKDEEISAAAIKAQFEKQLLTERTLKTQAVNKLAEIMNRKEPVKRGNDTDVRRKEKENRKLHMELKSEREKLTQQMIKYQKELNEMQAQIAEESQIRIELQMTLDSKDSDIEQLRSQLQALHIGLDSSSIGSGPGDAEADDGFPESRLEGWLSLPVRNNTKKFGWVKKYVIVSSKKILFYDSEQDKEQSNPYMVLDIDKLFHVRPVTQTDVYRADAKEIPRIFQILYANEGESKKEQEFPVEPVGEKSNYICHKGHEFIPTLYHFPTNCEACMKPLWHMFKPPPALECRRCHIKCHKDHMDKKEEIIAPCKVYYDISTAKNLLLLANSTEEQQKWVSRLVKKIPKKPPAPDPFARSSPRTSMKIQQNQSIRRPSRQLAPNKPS

[35] = target: Mitogen-activated protein kinase kinase kinase 13 (Homo sapiens) (UniProt O43283); settings: Compound concentration 100.0 nM

| Compound | inhibition [1] | residual activity [2] | residual activity [3] | residual activity [4] | residual activity [5] | residual activity [6] | residual activity [7] | residual activity [8] | residual activity [9] | inhibition [10] | residual activity [11] | residual activity [12] | residual activity [13] | residual activity [14] | residual activity [15] | residual activity [16] | residual activity [17] | residual activity [18] | residual activity [19] | residual activity [20] | also measured |
| --- | --- | --- | --- | --- | --- | --- | --- | --- | --- | --- | --- | --- | --- | --- | --- | --- | --- | --- | --- | --- | --- |
| Cn1cc(Cl)c2c(Oc3c(F)cc(Nc4cc(Cl)nc(N)n4)cc3F)ccnc21 [BAY-4900] | 1.6% | 100% | 100% | 100% | 90% | 100% | 100% | 100% | 100% | 1.05% | 100% | 100% | 93% | 79% | 72% | 100% | 86% | 94% | 81% | 96% | residual activity [21]: 98%; residual activity [22]: 84%; residual activity [23]: 84%; residual activity [24]: 90%; residual activity [25]: 100%; residual activity [26]: 91%; residual activity [27]: 100%; residual activity [28]: 100%; inhibition [29]: 0.85%; residual activity [30]: 100%; residual activity [31]: 90%; residual activity [32]: 87%; residual activity [33]: 89%; residual activity [34]: 83%; residual activity [35]: 99% |
| Cc1c[nH]c2nccc(Oc3c(F)cc(Nc4cc(Cl)nc(N)n4)cc3F)c12 [BAY-549] | 4.87% | 100% | 100% | 100% | 28% | 100% | 100% | 99% | 92% | -4.56% | 86% | 100% | 96% | 83% | 75% | 100% | 93% | 100% | 89% | 100% | residual activity [21]: 97%; residual activity [22]: 100%; residual activity [23]: 85%; residual activity [24]: 100%; residual activity [25]: 100%; residual activity [26]: 100%; residual activity [27]: 99%; residual activity [28]: 89%; inhibition [29]: 7.41%; residual activity [30]: 96%; residual activity [31]: 92%; residual activity [32]: 86%; residual activity [33]: 95%; residual activity [34]: 0.9%; residual activity [35]: 81% |
